Measured values reported in the supplement of paper PMC10307832.

Experiments:
Assay in all cases: relative viability (nuclei count vs DMSO), 5 days (fraction); higher = more cells survive
BAM7 + Navitoclax = compound: CCOC1=CC=CC=C1N=NC2=C(NN(C2=O)C3=NC(=CS3)C4=CC=CC=C4)C [BAM7] + CC1(C)CCC(c2ccc(Cl)cc2)=C(CN2CCN(c3ccc(C(=O)NS(=O)(=O)c4ccc(N[C@H](CCN5CCOCC5)CSc5ccccc5)c(S(=O)(=O)C(F)(F)F)c4)cc3)CC2)C1 [Navitoclax] (partner 0.5 µM)
Summary of the method: (§1)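 Lung cancer cell lines were seeded in 1536-well plates and dosed by pin tool the next day, with either a single drug or a fixed anchor-drug dose combined with five library-drug doses (not always all listed) spaced in √10 steps. Five days later, one step fixed the cells and stained their nuclei (final 0.05% Triton X-100, 1% formaldehyde, 1 ug/ml Hoechst), and nuclei were counted on 4× images. Relative viability is the nuclei count in treated wells divided by the count in vehicle wells, and each value is the median of duplicate plates.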

[1] = compound: CCn1c(-c2nonc2N)nc2c(C#CC(C)(C)O)ncc(OC[C@H]3CCCNC3)c21
Summary of the method: (§2)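 For viability, nuclei in each treated well were divided by nuclei in vehicle wells and the median across plates was taken. Lung cancer cell lines in 1536-well plates were pinned with five library-drug doses (not always all listed) spaced by √10, cultured 5 days without medium change, and imaged at 4× after Hoechst staining, with plates passing only at control CV below 25% and at least one doubling.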

BAM7 = compound: CCOC1=CC=CC=C1N=NC2=C(NN(C2=O)C3=NC(=CS3)C4=CC=CC=C4)C [BAM7]
Summary of the method: as §2

BAM7 + Foretinib = compound: CCOC1=CC=CC=C1N=NC2=C(NN(C2=O)C3=NC(=CS3)C4=CC=CC=C4)C [BAM7] + COc1cc2c(Oc3ccc(NC(=O)C4(C(=O)Nc5ccc(F)cc5)CC4)cc3F)ccnc2cc1OCCCN1CCOCC1 [Foretinib] (partner 0.25 µM)
Summary of the method: as §1

Cell Line | relative viability (BAM7 + Navitoclax; first compound 0.5 µM) | relative viability (BAM7 + Navitoclax; first compound 5 µM) | relative viability (BAM7 + Navitoclax; first compound 15.81 µM) | relative viability (BAM7 + Navitoclax; first compound 50 µM) | relative viability ([1]; 0.01 µM) | relative viability ([1]; 0.03162 µM) | relative viability ([1]; 0.1 µM) | relative viability ([1]; 0.3162 µM) | relative viability ([1]; 1 µM) | relative viability (BAM7; 0.5 µM) | relative viability (BAM7; 5 µM) | relative viability (BAM7; 15.81 µM) | relative viability (BAM7; 50 µM) | relative viability (BAM7 + Foretinib; first compound 0.5 µM) | relative viability (BAM7 + Foretinib; first compound 5 µM) | relative viability (BAM7 + Foretinib; first compound 15.81 µM) | relative viability (BAM7 + Foretinib; first compound 50 µM)
HCC-44 | 1.02 | 1.02 | 0.959 | 1.01 | 0.951 | 0.852 | 0.979 | 0.974 | 0.993 | 0.923 | 0.997 | 1.02 | 1.01 |  |  |  | 
HCC-827 | 1.06 | 1.04 | 0.914 | 0.939 | 1.06 | 1.03 | 1 | 0.986 | 0.99 | 1.04 | 1.05 | 1.06 | 1.03 | 0.967 | 1.05 | 1.03 | 0.998
NCI-H1623 |  |  |  |  | 1.07 | 1.02 | 0.963 | 0.967 | 1.09 | 1.06 | 0.974 | 0.768 | 0.896 | 0.905 | 0.831 | 0.689 | 0.786
NCI-H2347 | 0.765 | 0.918 | 0.806 | 0.861 | 1 | 1.03 | 0.956 | 1 | 0.93 | 1.13 | 1.11 | 1.06 | 1.03 | 1.23 | 0.918 | 0.969 | 0.981
PC-14 | 1.05 | 1.09 | 1 | 0.938 | 0.937 | 1 | 1.11 | 0.954 | 1.03 | 1.04 | 1.06 | 1 | 1.01 | 0.981 | 1.03 | 0.888 | 1.01
NCI-H1651 | 1.01 | 1.01 | 0.943 | 1.09 | 0.941 | 0.935 | 0.95 | 0.924 | 1.01 | 1.02 | 1 | 1 | 1.05 | 0.893 | 0.837 | 0.686 | 0.829
HARA | 1.19 | 1.19 | 1.08 | 1.16 | 0.85 | 0.97 | 0.722 | 0.876 | 0.778 | 0.942 | 1.01 | 0.836 | 0.986 | 0.913 | 0.833 | 0.779 | 1.02
NCI-H1650 | 1.46 | 1.26 | 1.15 | 1.15 | 0.941 | 0.994 | 0.877 | 0.841 | 0.833 | 1.02 | 0.884 | 0.826 | 1.04 | 1.34 | 1.2 | 1.01 | 1.04
NCI-H1395 | 1.15 | 1.14 | 1.1 | 1.13 | 0.848 | 0.693 | 0.762 | 0.737 | 0.705 | 0.884 | 1.01 | 0.944 | 1.1 | 1.01 | 1.09 | 1.01 | 1.05
NCI-H1563 |  |  |  |  | 1.01 | 0.984 | 0.96 | 0.901 | 0.89 | 0.967 | 1.04 | 0.995 | 1.02 | 0.898 | 0.82 | 0.868 | 0.963
ABC-1 |  |  |  |  | 0.934 | 0.869 | 0.864 | 0.768 | 0.696 | 0.919 | 1.05 | 0.855 | 1.14 | 1.05 | 1.17 | 0.95 | 1.19
SW 900 |  |  |  |  | 0.796 | 0.73 | 0.76 | 0.822 | 0.892 | 0.781 | 0.826 | 0.708 | 1.03 | 0.933 | 0.755 | 0.774 | 0.863
NCI-H1648 |  |  |  |  | 0.922 | 0.869 | 0.775 | 0.851 | 0.973 | 0.786 | 0.754 | 0.608 | 0.708 |  |  |  | 
NCI-H1792 | 0.621 | 0.691 | 0.783 | 0.61 | 0.887 | 0.636 | 0.939 | 0.908 | 0.932 | 1.02 | 1.06 | 1.07 | 0.873 |  |  |  | 
LCLC-103H |  |  |  |  | 0.964 | 0.988 | 0.929 | 0.938 | 1.09 | 0.966 | 1.04 | 0.983 | 1.04 | 0.693 | 0.741 | 0.739 | 0.777
NCI-H358 |  |  |  |  | 0.905 | 1.01 | 0.935 | 0.912 | 0.913 | 0.96 | 1.19 | 0.942 | 0.912 | 0.834 | 0.84 | 0.642 | 0.634
NCI-H2342 |  |  |  |  | 0.957 | 0.881 | 0.99 | 0.91 | 0.964 | 0.851 | 0.994 | 0.89 | 0.708 | 1.01 | 1.04 | 0.921 | 1.03
NCI-H522 |  |  |  |  | 1.07 | 1.03 | 0.972 | 0.826 | 1.02 | 0.981 | 1.07 | 1.01 | 1.07 |  |  |  | 
NCI-H650 |  |  |  |  | 0.788 | 0.854 | 0.854 | 0.998 | 0.832 | 0.944 | 1.1 | 0.955 | 1.22 | 0.988 | 1.14 | 1 | 0.992
NCI-H661 |  |  |  |  | 1.01 | 1.03 | 0.976 | 1.01 | 0.972 | 0.984 | 1.03 | 0.965 | 1.03 | 1.02 | 1.08 | 0.964 | 1.11
